Data reported in US20130053435A1, “Methods of Treating Alcohol Intoxication, Alcohol Use Disorders and Alcohol Abuse Which Comprises the Administration of Dihydromyricetin” (priority 2011, published 2013).

Legend:
GABAAR α4 subunit = assay: Cell-surface biotinylation and Western blot in cultured hippocampal neurons; format: cell-based, rat; conditions: 24 hr
Description: Western blots of the cultured neurons were performed and examined as described herein. Biotinylation assays for GABAARs of the cultured neurons were performed as described previously. See Chung W O, et al. (2000) Infect Immun 68(12):6758-6762. Briefly, the neurons in culture dishes were placed on ice and washed twice with ice cold PBS. Then the neurons were incubated for 30 min on ice with PBS containing 1 mg/ml sulfo-NHS-LC-biotin (ProteoChem). After quenching the biotin-reaction with Tris-buffered saline (TBS), neurons were lysed in 150 μl of modified RIPA-buffer (20 mM Tris-HCl (pH 7.5), 150 mM NaCl, 1 mM Na2 EDTA, 1 mM EGTA, 1% NP-40, 1% sodium deoxycholate, 2.5 mM sodium pyrophosphate, 1 mM b-glycerophosphate, 1 mM Na3VO4, and 1 μg/ml leupeptin). The homogenates were centrifuged for 15 min (14,000×g, 4° C.). An aliquot (10%) of the supernatant was removed to measure β-actin. The remaining supernatant was incubated with 60 μl of 50% neutravidin agarose (Pierce Chemical Company) for 4 hr at 4° C. and washed four times with lysis buffer. Agarose-bound proteins were taken up in 20 μl of SDS sample buffer and boiled. Western blots were performed as mentioned above.
The surface expression of α4 subunit in cultured neurons was measured using cell-surface biotinylation followed by Western blot analysis.

[1] = tested on: benzodiazepine site of GABAARs; assay: [3H]flunitrazepam binding in rat cortical membrane homogenates
Description: Standard procedures for preparation of rat cortical membranes for radioligand binding assays were conducted as previously described with modifications in speed and number of centrifugation and washes, and buffer compositions. […] Naïve rat cortex was dissected from brain and homogenized in 0.32 M sucrose, 10 mM HEPES buffer (pH 7.4), and centrifuged at 650×g, 4° C. The subsequent supernatant was centrifuged at 150,000×g to collect the desired membrane-containing pellet. The pellet was washed and centrifuged two more times, first using ice-cold water and second using membrane buffer containing 50 mM KH2PO4, 1 mM EDTA, 2 mM benzamidine HCl, 0.5 mM DTT, 0.1 mM benzethonium HCl, 0.01% bacitracin, 0.2 PMSF (pH 7.4), and the resulting pellet was frozen. On the day of binding assay, the pellet was homogenized in assay buffer containing 50 mM KH2PO4, 1 mM EDTA, 200 mM KCl (pH 7.4) and centrifuged, and resuspended in fresh assay buffer to a final protein concentration of 1 mg/ml. […] Specific binding was defined as the total amount bound (zero unlabeled ligand) minus the binding in the presence of 10 μM final concentration flurazepam (Sigma). Data was analyzed with GraphPad Prism 4.0 Software (San Diego, Calif.) to determine IC50 (One-site competition equation) and Hill slope (Sigmoidal Dose-Response equation). Experiments were conducted in triplicate.

[2] = tested on: EtOH withdrawal anxiety in rats; assay: Elevated plus-maze (EPM) after EtOH withdrawal; format: in vivo, rat
Description: 48 hr after injection, rats were sub-divided into 3 groups to measure signs of EtOH withdrawal.
Anxiety and locomotion/ataxia associated with EtOH withdrawal was measured on an elevated plus-maze in EtOH-withdrawn rats (EPM, FIG. 12A). Spent time was measured in minutes. The plus-maze was constructed and the measurements were scored as described previously. See Liang et al. (2004) J Pharmacol Exp Ther 310:1234-1245. Briefly, the maze was elevated 1 m above the floor, and contained four 51 cm-long, 11.5 cm-wide arms arranged at right angles. The closed arms had opaque walls 30 cm high, extending the length of the arm. At the time of the test, each animal was placed in the center of the maze facing an open arm and allowed to explore for a 5-min session. During the session, the animal's behavior (e.g. number of arm entries and time spent in each arm per entry) was recorded on a camcorder

[3] = EtOH+DHM (E+D) group, 48 hr withdrawal

concentration at which significant inhibition of [3H]flunitrazepam binding starts [1]: 0.3 µM
IC50 ([1]; [3H]flunitrazepam 1 nM, rat cortex membranes, read-out: IC50, inhibition of [3H]flunitrazepam binding): 4.36 µM
binding to GABAARs in [3H]flunitrazepam binding assay ([1]; comparative experiments): bind GABAARs
Structure (SMILES): O=C1c2c(O)cc(O)cc2O[C@H](c2cc(O)c(O)c(O)c2)[C@H]1O [DHM, (2R,3R)-3,5,7-trihydroxy-2-(3,4,5-trihydroxyphenyl)-2,3-dihydrochromen-4-one]
α4 surface expression (GABAAR α4 subunit; neurons treated with DHM): 125.0±27.3 % of control
α4 subunit surface expression (GABAAR α4 subunit; neurons treated with EtOH+DHM): 123.0±8.4 % of control
time spent in closed arms ([2]; DHM group, 48 hr): 1.52 ± 0.56 min
time spent in open arms ([2]; DHM group, 48 hr): 2.92 ± 0.70 min
time spent in closed arms [2, 3]: 1.88 ± 0.79 min
time spent in open arms [2, 3]: 2.68 ± 0.77 min
